Experimental findings from US20010046668A1, “Fluorescence polarization method for determining protease activity” (G.D. Searle & Co., priority 1994, published 2001) are described below.

No end group written: not given here.

This test deals with HCMV protease (also known as assemblin) encoded by UL80 (Human cytomegalovirus, UniProt P16753). Kind of test: Assemblin fluorescence polarization assay: hydrolysis of biotin/DTAF peptide substrate, quenched with avidin. To be noted: for Polarization: protease 100 nM, substrate 5 μM final, room temperature, avidin added. It counts as biochemical, human cytomegalovirus strain AD169. As to the method: The construction also encoded six additional histidine residues at the amino terminus of the protease. These additional histidine residues provided an affinity ligand by which it was purified using nickel-nitriloacetic acid-agarose (Qiagen).
The assay was performed in a buffer consisting 10 mM Phosphate buffer, pH 7.4, 20% glycerol, 150 mM sodium acetate, 0.1% CHAPS, 0.1 mM EDTA, 0.05% BSA, 2 mM NaSO3. The pH of the buffer was adjusted to 7.4 before the addition of glycerol.
The purified protease was stored as a 10 μM stock solution in 50/50 (V/V) glycerol/water, 50 μL per vial, and held at −20° C. A positive displacement pipette was used to make the 50 μL aliquots. This stock was diluted with assay buffer to 32 nM. A 100 μL aliquot of this solution was used in the enzyme reaction. A 150 μM substrate stock solution was prepared in assay buffer and stored at 4° C. in the dark. A 20 μM dilute assay stock was prepared by dilution of the 150 μM storage stock. A 5 mg/mL avidin stock solution was made by dissolving avidin (Molecular Probes) in assay buffer and stored in the refrigerator at 4° C. Roundbottom 96-well plate microtiter plates (Black MicroFluor, Dynatec) were pre-blocked with 1.0% BSA in PBS, pH 7.4, and stored at 4° C. The plates were rinsed and dried before use.
An HCMV protease (also known as assemblin) encoded by UL80, in buffer (100 nM) was added in multiple wells to rinsed and dried, pre-blocked microtiter plate. No precautions are taken to stabilize the temperature. Substrate (5 μM final concentration) was added, mixed 5 times, and incubated at room temperature. Avidin (35 μL of 5 mg/mL) was added to one group of wells after 10 minutes, to a second group of wells after 20 minutes and to the remaining wells after thirty minutes, mixed 5 times, and the polarization of the resulting mixture was measured on the FPM2 fluorescence polarimeter. The complete hydrolysis to Ser-Ala-Leu-Arg-Lys(DTAF)-NH2 gave a Pmin value of 32.1 mP.

Chain of HCMV protease (also known as assemblin) encoded by UL80 (P16753 1-256): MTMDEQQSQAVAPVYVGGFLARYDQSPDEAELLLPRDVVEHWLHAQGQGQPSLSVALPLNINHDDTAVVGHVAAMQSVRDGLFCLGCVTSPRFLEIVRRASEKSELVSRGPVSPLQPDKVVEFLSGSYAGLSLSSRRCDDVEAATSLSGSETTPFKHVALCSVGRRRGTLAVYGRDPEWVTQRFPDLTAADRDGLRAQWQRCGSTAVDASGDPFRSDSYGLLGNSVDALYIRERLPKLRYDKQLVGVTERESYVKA

Regarding “Biotin-γ-Abu-Gly-Val-Val-Asn-Ala-Ser-Ala-Arg-Leu-Lys(DTAF)-NH2 [Example 1]”, the “ΔP = Pmax − P(t)” value reads like this: (time 0 min) 0.0 mP; (time 10 min) 47.0 mP; (time 20 min) 77.2 mP; (time 30 min) 99.9 mP. Moreover, the Polarization by setting is: (time 0 min) 214.1 mP; (time 10 min) 167.2 mP; (time 20 min) 136.9 mP; (time 30 min) 114.2 mP.

With “Ser-Ala-Leu-Arg-Lys(DTAF)-NH2 (SALRK(DTAF)-NH2) [cleaved fluorescent fragment from complete hydrolysis of the assemblin substrate]”, the “Pmin value (polarization)” value (complete hydrolysis of the substrate to the cleaved fluorescent fragment) is on record as 32.1 mP.
